US11278682B2, “Device and method for aerosolized delivery of substance to a natural orifice of the body” (SIPNOSE LTD., priority 2014, dated 2022)
Values joined by “and” are separate entries in the source; they are usually repeats but may differ in a detail not shown here. Identical values can stand only once.

Key:
patients = assay: Midazolam pre-medication sedation (BIS EEG monitoring), 1.4 mg, SipNose vs MAD Nasal atomizer; assay type: in vivo, human; conditions: for Positive Sedation / Adverse events / Level of minimum BIS / Onset time: individual patients 1 and 2
Description: Comparison with MAD (using a 1 mg/ml solution): For a pre-medication procedure with MAD atomizer, in order to achieve the desired dose of 1.4 mg Midazolam, the delivery device was delivered to one nostril and an aliquot of Midazolam within a volume of 1.4 ml was delivered. For SipNose device delivery the Midazolam was delivered in 2 separate aliquots of 0.7 ml, one to each nostril.
In order to determine the efficacy of anesthetization a BIS EEG monitoring was used, where the BIS values for brain activity are calculated from the EEG activity. Awake, unsedated individuals typically have BIS values ≥97. Mildly sedated individuals typically have BIS values in the 80's, moderately sedated individuals typically have BIS values in the 70's, while fully sedated individuals typically have BIS values below about 70; BIS values between about 45 and about 60 are commonly used for general anesthesia during the maintenance phase of an operation.
Two comparisons were made between the commercial device and the present, SipNose, device. In the first, 3 mg of Midazolam was administered and the commercial device was a commercial nasal pump (positive displacement), in the second, 1.4 mg of Midazolam was administered and the commercial device was a MAD applicator.
In the second comparison, the total dose of Midazolam was 1.4 mg in a total volume of carrier of 1.4 ml. For the SipNose device, it was administered in two aliquots of 0.7 ml, whereas it was administered in one aliquot for the commercial MAD Nasal atomizer from Wolfe Tory. Midozolam was administered to four patients, two with the SipNose device and two with the commercial MAD device.

[1] = system: Pentylenetetrazol (PTZ)-induced epileptic seizures in rats; assay: Pentylenetetrazol (PTZ)-induced epileptic seizures, Racine grading, Midazolam IV vs SipNose; assay type: in vivo, rat
Description: In this example, epileptic seizures were induced in rats by administration of 47.5-50 mg/kg of Pentylenetetrazol (PTZ) for 5 min before the start of treatment with Midazolam. The Midazolam was administered either via IV or using a SipNose device, via the nasal passages. There were two dosing levels, 0.6 mg/kg (FIG. 78) and 6 mg/kg (FIG. 79).
In all cases, the Racine grading standard was used to determine the severity of the seizures. PZT was at t=−5 min, the start of treatment was at time t=0.
Treatment consisted of saline (control, diamonds), Midazolam administered by IV (triangles) or Midazolam administered nasally by a SipNose device (squares).

[2] = Dose-response of Midazolam brain concentration; assay type: in vivo, rat; conditions: rats; doses about 0.6 to about 6 mg/kg; brain concentration 60 minutes after administration
Description: In this example, doses of Midazolam between about 0.6 mg/kg and about 6 mg/kg were administered to rats and the concentration of Midazolam in the brain was measured 60 minutes after administration.

[3] = system: Pentylenetetrazol (PTZ)-induced epileptic seizures in rats; assay: Brain concentration of Midazolam vs convulsion score in PTZ-induced seizures; assay type: in vivo, rat; conditions: 60 minutes after administration
Description: Epileptic seizures were induced in rats by administration of Pentylenetetrazol (PTZ) and the severity of the seizures was measured 60 minutes after administration of Mizadolam. Doses of Mizadolam varied from zero to 6 mg/kg with SipNose nasal delivery device and with an I/V administration. Brain concentrations of Midazolam were measured and a correlation between brain concentration and convulsions score is shown in FIG. 81. Brain concentrations varied from zero to 130 ng/gr brain tissue. Black squares represent the I/V administrated animals and black dots represent the SipNose administrated animals.

[4] = system: patient suffering from epileptic seizures (SE); assay: Anti-epileptic treatment of status epilepticus with Midazolam, EEG recordings (case study); assay type: in vivo, human; conditions: 2 mg Midazolam via SipNose, nasal
Description: Case study of a patient, suffering from epileptic seizures (SE) was treated with a dose of 2 mg Midazolam with sipNose delivery device to deliver Midazolam via the nasal cavity.
Administration of Midazolam was done by administrating of […] of Midazolam to each nostril in a carrier volume of 1 ml. EEG recordings were measured before (FIGS. 82A and 82B) and 3 minutes following to the nasal administration of the drug with SipNose device.

[5] = system: New Zealand White female rabbits; assay: Nasal cavity irritation and general toxicity of repeated intra-nasal Midazolam
Description: Nasal cavity irritation and general toxicity were assessed for repeated intra-nasal applications of Midazolam to rabbits, using a SipNose intra-nasal delivery device. Six New Zealand White female rabbits were used, with the three experimental animals being given two 200 μL doses of Midazolam (5 mg/ml) per day, six hours apart. The three control animals were given four 200 μL doses of saline solution per day, at 3 hour intervals.
The daily dosing was repeated for 10 days, for 11 days' dosage in total. 24 hours after the last dosing, the animals were sacrificed.
The animals were observed once daily until study termination. Shortly before sacrifice, blood was taken for testing.
After sacrifice, gross pathology was performed, examining major tissue and organ systems. Organs (nasal cavity (including olfactory epithelium), nasopharynx, paranasal sinus, trachea, lungs, larynx, brain (olfactory bulbs and hippocampus), heart, olfactory nerve, optic nerve and lacrimal glands) of all animals were harvested and examined. Three cross sections of the skull were taken: (1) in the nose from rostral, (2) behind the incisor teeth and (3) caudal, including the olfactory epithelium labyrinth, as shown in FIG. 85.
Brains were dissected in the olfactory regions and the hippocampus. Lungs were evaluated in both right and left lobes. Tissues were trimmed, embedded in paraffin, sectioned at no more than 5 microns thickness, and stained with Hematoxylin & Eosin (H&E).
In order to alleviate the discomfort an animal might endure during intra-nasal administration, prior to placement the sipNose device, Lidocaine was applied locally in the nasal area.

[6] = Midazolam pharmacokinetic study, plasma and brain, SipNose vs IV; conditions: rats
Description: Concentration of Midazolam in the plasma and brain of rats were compared for intranasal administration via the SipNose delivery device and via IV administration. A standard drug formulation (Injectable Midazolam 5 mg/ml, Pfizer/Hospira brand) was used, with no reformulation or adaptation for nasal delivery. Two drug concentrations were used for the intranasal administration, 0.2 mg/kg (dashed line in FIGS. 91 and 92) and 0.6 mg/kg (dot-dash line in FIGS. 91 and 92), compared to the standard of care I/V administration of 0.6 mg/kg (solid line in FIGS. 91 and 92). Concentration was measured 10 times in the 12 hours of the study. For each measurement time, midazolam concentration was measured in the plasma and brain of five animals.

[7] = commercial MAD Nasal atomizer, 1.4 mg

## Cc1ncc2n1-c1ccc(Cl)cc1C(c1ccccc1F)=NC2 [Midazolam]
patients; SipNose administration, 1.4 mg
  sleeping score by observation: 3
patients; SipNose device, 1.4 mg in two aliquots of 0.7 ml
  Positive Sedation: Yes
patients; SipNose device, 1.4 mg
  Adverse events: No
  Level of minimum BIS: 84
  Onset time: 3 min and 5 min
patients; commercial MAD Nasal atomizer, 1.4 mg in one aliquot
  Positive Sedation: Limited and No
patients; [7]
  Adverse events: No
  Level of minimum BIS: 83 and 92
  Onset time: 20 min and 8 min
patients; commercial device, 1.4 mg
  sleeping score by observation (average): 1.5
[1]; 0.6 mg/kg Midazolam nasally by SipNose, about t=10 min to t=60 min
  Racine seizure severity: zero, no seizures were seen
[1]; 6 mg/kg Midazolam IV
  Racine seizure severity: < 0.5
[1]; 6 mg/kg Midazolam nasally by SipNose
  Racine seizure severity: < 0.5
[2]
  dose-response curve of brain concentration: essentially linear
[3]; IV administration
  Midazolam brain concentration at which Racine severity reaches zero: about 130 ng/gm
  Midazolam brain concentration up to which Racine severity remained at about 1: about 25 ng/gm
[3]; SipNose administration
  Midazolam brain concentration needed to completely prevent seizures (score=0): ~11 ng/gm
[4]
  time after administration at which brain activity (EEG) is back to normal: 3 min
[5]; Midazolam group
  Amylase (blood chemistry): 240±13.1 IU/L
[5]; Midazolam vs control
  all relevant safety parameters (clinical observations, histopathology, ophthalmic examination, haematology, blood analysis): no differences were found between the control and study groups
[5]; Midazolam vs control group
  blood coagulation parameters: No differences were detected
[5]; either group
  histopathology: No major histopathological abnormalities were found
[5]; repeated intra-nasal Midazolam
  blood chemistry analysis, all results: within the normal range for the blood of rabbits
[5]; repeated intra-nasal Midazolam vs saline control
  blood hematology analysis: None of the parameters showed any difference between the control group and the study group
[5]; two 200 μL doses of Midazolam (5 mg/ml) per day via SipNose, repeated daily
  body weight during the study: did not exhibit major changes in weight
[5]; two animals from the Midazolam group, attributed to device tip
  finding in frontal nose space: very mild bleeding was detected in the frontal nose space
[6]; 0.6 mg/kg intranasal via SipNose
  pharmacokinetic pattern: very similar to that of standard of care (I/V) administration
[6]; intranasal via SipNose (0.2 and 0.6 mg/kg) vs I/V 0.6 mg/kg
  absorption into blood and brain: comparable to that seen for I/V administration
